{"source": "patent US20180153870A1", "about": "“BIPERIDEN FOR TREATING CANCER” (Universitätsklinikum Hamburg-Eppendorf, priority 2015, published 2018)", "type_in_all_cases": "cell-based, human", "key": {"[1]": {"tested_on": "HPDE", "experiment": "MTT proliferation assay, HPDE reference cell line", "conditions": "for reaction of proliferation: mepazine, other doses of biperiden or a combination of mepazine and biperiden", "protocol": "The cell lines used for the proliferation assays were cultured in different media. The cell lines Pan-1, Panc-2 and BxPC3, which have been derived from the human ductal pancreatic adenocarcinoma (PDAC), were cultured in Dulbecco's modified Eagle medium (DMEM) (Sigma), that was supplemented with 1% penicillin/streptomycin (Life technologies/GIBCO 15140-122) and 10% fetal bovine serum (Life technologies/GIBCO 100500-064). The cell line L3.6pl was cultured in RPMI 1640 medium (Life technologies/GIBCO 72400-21) that was supplemented with 1% penicillin/streptomycin and 10% fetal bovine serum. A sub-clone of the cell line L3.6pl, that was designated L3.6pl res, was resistant to gemcitabine and was also cultured in RPMI 1640 medium (Life technologies/GIBCO 72400-21) that was supplemented with 1% penicillin/streptomycin, 10% fetal bovine serum and 2 μM gemcitabine (GEMZAR, Lily). The human immortalized, non-malignant cell line of the ductal pancreatic epithelium (HPDE) was cultured in keratinocyte-SFM (Life technologies/GIBCO) that was supplemented with 10% fetal bovine serum, 1% penicillin/streptomycin and 1% epidermal growth factor (EGF).\nThe proliferation rates of the cell lines were determined after stimulation with (i) biperiden, (ii) mepazine, and (iii) stimulation with both active ingredients. For this purpose, cells were seeded in plates with 96 wells at 5000 cells per well and incubated overnight at 37° C. and 5% CO2. Next morning, the blanket values were measured at 490 nm in an ELISA reader (FLUOstar Omega, BMG LABTECH) after the addition of 100 μL medium and 20 μL MTT substrate (CellTiter 96 AQueous One Solution Cell Proliferation Assay, Promega). Biperiden was added in increasing concentrations (3.71 μg/ml, 11.1 μg/ml und 29.6 μg/ml) in the form of solutions of biperiden hydrochloride (B5311 SIGMA-Aldrich, USA) and DMSO. […] The ex-tinction was measured every 24 hours during a period of 72 hours.\n(§1) The normal distribution of the results was analyzed by Kolgomorov-Smirnov test and Shapiro-Wilk test. Non-parametric variables were analyzed using the Mann-Whitney-U test. […]"}, "[2]": {"tested_on": "HPDE", "experiment": "cleaved caspase 3 sandwich ELISA (apoptosis), HPDE", "conditions": "29.6 μg/ml biperiden", "protocol": "(§2) To determine the effect of biperiden, mepazine and combinations of the two active ingredients on apoptosis in cell lines, a “cleaved caspase 3” sandwich ELISA was used. The pancreatic cancer cell lines L3.6pl res, L3.6pl wt, Panc-1, Panc-2 and the reference cell line HPDE were treated with 29.6 μg/ml biperiden or 25 μM mepazine or 15 μM mepazine+3.7 μg/ml biperiden or only with vehicle (DMSO). The cleaved caspase 3 was measured 24, 48 and 72 hours after incubation. The apoptosis within the cells was measured using a PathScan “cleaved caspase 3” sandwich ELISA (Cell Signaling, #7190C) according to the manufacturers instructions. Each experiment was carried out at least 3 times in duplicate."}, "[3]": {"tested_on": "L3.6pl res", "experiment": "cleaved caspase 3 sandwich ELISA (apoptosis), L3.6pl res", "conditions": "29.6 μg/ml biperiden", "protocol": "as §2"}, "[4]": {"tested_on": "L3.6pl wt", "experiment": "cleaved caspase 3 sandwich ELISA (apoptosis), L3.6pl wt", "conditions": "29.6 μg/ml biperiden", "protocol": "as §2"}, "[5]": {"tested_on": "Panc-1", "experiment": "cleaved caspase 3 sandwich ELISA (apoptosis), Panc-1", "conditions": "29.6 μg/ml biperiden, after 24 hours", "protocol": "as §2"}, "[6]": {"tested_on": "Panc-2", "experiment": "cleaved caspase 3 sandwich ELISA (apoptosis), Panc-2", "conditions": "29.6 μg/ml biperiden", "protocol": "as §2"}, "[7]": {"tested_on": "BxPC3", "experiment": "cleaved caspase 3 sandwich ELISA (apoptosis), BxPC3", "conditions": "29.6 μg/ml biperiden", "protocol": "[The procedure below names another cell line; the source lists this cell line under the same test.] as §2"}, "[8]": {"tested_on": "tested cell lines (L3.6pl res, L3.6pl wt, Panc-1, Panc-2, BxPC3, HPDE)", "experiment": "cleaved caspase 3 sandwich ELISA (apoptosis), all tested cell lines", "conditions": "29.6 μg/ml biperiden", "protocol": "To determine the effect of biperiden, mepazine and combinations of the two active ingredients on apoptosis in cell lines, a “cleaved caspase 3” sandwich ELISA was used. […] The cleaved caspase 3 was measured 24, 48 and 72 hours after incubation. The apoptosis within the cells was measured using a PathScan “cleaved caspase 3” sandwich ELISA (Cell Signaling, #7190C) according to the manufacturers instructions. Each experiment was carried out at least 3 times in duplicate."}, "[9]": {"tested_on": "Panc-1", "experiment": "MTT proliferation assay, Panc-1", "protocol": "The cell lines used for the proliferation assays were cultured in different media. The cell lines Pan-1, Panc-2 and BxPC3, which have been derived from the human ductal pancreatic adenocarcinoma (PDAC), were cultured in Dulbecco's modified Eagle medium (DMEM) (Sigma), that was supplemented with 1% penicillin/streptomycin (Life technologies/GIBCO 15140-122) and 10% fetal bovine serum (Life technologies/GIBCO 100500-064). The cell line L3.6pl was cultured in RPMI 1640 medium (Life technologies/GIBCO 72400-21) that was supplemented with 1% penicillin/streptomycin and 10% fetal bovine serum. […]\nThe proliferation rates of the cell lines were determined after stimulation with (i) biperiden, (ii) mepazine, and (iii) stimulation with both active ingredients. […] Next morning, the blanket values were measured at 490 nm in an ELISA reader (FLUOstar Omega, BMG LABTECH) after the addition of 100 μL medium and 20 μL MTT substrate (CellTiter 96 AQueous One Solution Cell Proliferation Assay, Promega). […] The ex-tinction was measured every 24 hours during a period of 72 hours.\nas §1"}}, "data": [{"smiles": "OC(CCN1CCCCC1)(c1ccccc1)C1CC2C=CC1C2", "note": "(centres unmarked) [biperiden]", "values": [{"measurement": "proliferation", "setting": "[1]; 11.1 μg/ml biperiden", "value": "reduced slightly"}, {"measurement": "reaction of proliferation", "setting": "[1]", "value": "no statistically significant reaction"}, {"measurement": "cleaved caspase 3", "setting": "[2]; after 48 hours", "value": "265.3±27.8", "unit": "RLU"}, {"measurement": "increase of apoptosis rate compared to vehicle", "setting": "[2]; after 48 hours, p=0.037", "value": 132, "unit": "%"}, {"measurement": "cleaved caspase 3", "setting": "[2]; after 72 hours", "value": "368.4±33.5", "unit": "RLU"}, {"measurement": "increase of apoptosis rate compared to vehicle", "setting": "[2]; after 72 hours, p=0.002", "value": 283.9, "unit": "%"}, {"measurement": "cleaved caspase 3", "setting": "[3]; after 24 hours", "value": "770.0±72.5", "unit": "RLU"}, {"measurement": "increase of apoptosis rate compared to vehicle", "setting": "[3]; after 24 hours, p=0.008", "value": 274, "unit": "%"}, {"measurement": "cleaved caspase 3", "setting": "[3]; after 48 hours", "value": "848.1±45.7", "unit": "RLU"}, {"measurement": "increase of apoptosis rate compared to vehicle", "setting": "[3]; after 48 hours, p=0.003", "value": 273.8, "unit": "%"}, {"measurement": "cleaved caspase 3", "setting": "[3]; after 72 hours", "value": "633.3±55.7", "unit": "RLU"}, {"measurement": "increase of apoptosis rate compared to vehicle", "setting": "[3]; after 72 hours, p=0.021", "value": 204.0, "unit": "%"}, {"measurement": "cleaved caspase 3", "setting": "[4]; after 24 hours", "value": "443.4±18.1", "unit": "RLU"}, {"measurement": "increase of apoptosis rate compared to vehicle", "setting": "[4]; after 24 hours, p<0.001", "value": 210.4, "unit": "%"}, {"measurement": "cleaved caspase 3", "setting": "[4]; after 48 hours", "value": "386.2±15.9", "unit": "RLU"}, {"measurement": "increase of apoptosis rate compared to vehicle", "setting": "[4]; after 48 hours, p=0.028", "value": 83.5, "unit": "%"}, {"measurement": "cleaved caspase 3", "setting": "[5]", "value": "325.1±48.3", "unit": "RLU"}, {"measurement": "increase of apoptosis rate compared to vehicle", "setting": "[5]; p=0.049", "value": 125.3, "unit": "%"}, {"measurement": "cleaved caspase 3", "setting": "[6]; after 24 hours", "value": "360.0±11.0", "unit": "RLU"}, {"measurement": "increase of apoptosis rate compared to vehicle", "setting": "[6]; after 24 hours, p=0.029", "value": 109.1, "unit": "%"}, {"measurement": "cleaved caspase 3", "setting": "[6]; after 48 hours", "value": "306.0±74.8", "unit": "RLU"}, {"measurement": "increase of apoptosis rate compared to vehicle", "setting": "[6]; after 48 hours, p=0.047", "value": 65.3, "unit": "%"}, {"measurement": "cleaved caspase 3", "setting": "[7]; after 24 hours", "value": "813.1±37.7", "unit": "RLU"}, {"measurement": "increase of apoptosis rate compared to vehicle", "setting": "[7]; after 24 hours, p=0.002", "value": 369.8, "unit": "%"}, {"measurement": "cleaved caspase 3", "setting": "[7]; after 48 hours", "value": "1046.1 ± 34.7", "unit": "RLU"}, {"measurement": "increase of apoptosis rate compared to vehicle", "setting": "[7]; after 48 hours, p=0.004", "value": 357.5, "unit": "%"}, {"measurement": "cleaved caspase 3", "setting": "[7]; after 72 hours", "value": "862.8 ± 85.2", "unit": "RLU"}, {"measurement": "increase of apoptosis rate compared to vehicle", "setting": "[7]; after 72 hours, p=0.032", "value": 230.9, "unit": "%"}, {"measurement": "apoptosis", "setting": "[8]", "value": "increased apoptosis was observed in all cell lines"}]}, {"smiles": "CN1CCCC(CN2c3ccccc3Sc3ccccc32)C1", "note": "(centres unmarked) [mepazine]", "values": [{"measurement": "reaction of proliferation", "setting": "[1]", "value": "no statistically significant reaction"}, {"measurement": "reduction of proliferation", "setting": "[9]; 15 μM mepazine, p=0.005", "value": 97.7, "unit": "%"}, {"measurement": "proliferation", "setting": "[9]; 25 μM mepazine, p=0.004", "value": "completely stopped"}]}]}
